Literature values as cited in patent publication US8175817B2, “Reciprocal symmetry plots as a new representation of countercurrent chromatograms” (The Board of Trustees of the University of Illinois, priority 2007, dated 2012).

Conditions: octanol/water; extremes of the GUESSmix compounds found in the region of optimal resolution

In the case of CC(C)CCC[C@@H](C)[C@H]1CC[C@H]2[C@@H]3CC=C4C[C@@H](O)CC[C@]4(C)[C@H]3CC[C@]12C [cholesterol], the “Log Koctanol/water” value is given as 9.52.
